Laboratory results from PubChem BioAssay AID179 (DTP/NCI, 2004).
Active and inactive are the calls of the source.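 How the source made its calls: active means compounds giving half or more protection of infected cells from virus-caused growth loss, again on retest; inactive means the rest.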 Where a SMILES comes first, the peptide text is derived from it. The star is where a group is joined. Boc = CC(C)(C)OC(=O)*; Bn = c1ccc(C*)cc1

Tested on: CEM cells HIV-1 protection, formazan growth assay
Assay: NCI AIDS Antiviral Assay
Conditions: for IC50: measured here: growth of uninfected CEM cells
Method in brief: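 Screen of anti-HIV-1 activity in human CEM cells using a formazan-based growth measurement at five drug concentrations. Hits with 50% or greater protection were repeated, and confirmation required reproducible complete protection.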

Compound: Cc1cn(CCOCCOC(=O)NC(CCCNC(N)=O)C(=O)O)c(=O)[nH]c1=O (stereo not drawn)
- EC50: > 200 µM
- IC50: > 200 µM

Compound: O=C(/C=C/c1ccc(Cl)c(Cl)c1)c1ccccc1Cl
- EC50: > 2.4 µM
- IC50: > 2.4 µM

Compound: Cc1nc2c(nc1C)C(=O)C(Br)=C(N)C2=O
- outcome: inactive

Compound: CN1COc2ccc(Br)cc2C1
- outcome: inactive

Compound: O=[N+]([O-])C1=C(c2ccccc2)SC([N+](=O)[O-])=C(c2ccccc2)S1
- EC50: > 200 µM
- IC50: 14.8 µM

Compound: O=c1c2ccccc2nc(/C=C(\O)c2ccncc2)n1-c1ccc(Cl)cc1
- EC50: > 1.45 µM
- IC50: > 1.45 µM

Compound: COC[C@H](C)N=CN1CCc2ccccc2C1
- EC50: > 1070 µM
- IC50: > 1070 µM

Compound: COC(=O)C(CC(C)C)NC(=O)CNC(=O)C(Cc1ccc(OCc2ccccc2)cc1)NC(=O)C(COCc1ccccc1)NC(=O)OC(C)(C)C (stereo not drawn) (Boc-S(Bn)Y(Bn)GL-OMe; configuration not given here)
- EC50: > 200 µM
- IC50: 115 µM

Compound: CCOP(=Nc1ccc(N(C)C)cc1)(OCC)OCC
- EC50: > 200 µM
- IC50: > 200 µM

Compound: c1ccc(C2ON2CCCN2OC2c2ccccc2)cc1 (stereo not drawn)
- EC50: > 200 µM
- IC50: > 200 µM

Compound: O=c1nc(-c2ccccc2)cc(CC(O)(c2ccc(C(F)(F)F)cc2)c2ccc(Cl)c(Cl)c2)[nH]1 (stereo not drawn)
- EC50: > 20 µM
- IC50: > 20 µM

Compound: O=C1NC(O)c2cc(O)ccc2O1 (stereo not drawn)
- EC50: > 200 µM
- IC50: 81.3 µM

Compound: O=C1Sc2ccccc2C(=O)N2CS(=O)CC12 (stereo not drawn)
- EC50: > 100 µM
- IC50: > 100 µM

Compound: COc1ccc(-n2cnn3c(=O)c4cn[nH]c4nc23)cc1
- EC50: > 200 µM
- IC50: > 200 µM

Compound: COc1ccc2c(c1)CCN1C2CCN2C(=O)CCC21 (stereo not drawn)
- EC50: > 912 µM
- IC50: > 912 µM

Compound: Cn1c(=O)c2nc3c(=O)n(C)c(=O)n(C)c3nc2n(C)c1=O
- EC50: > 200 µM
- IC50: 79.4 µM

Compound: COc1ccc(Cl)[c]([Bi]([c]2cc(OC)ccc2Cl)[c]2cc(OC)ccc2Cl)c1
- EC50: > 39.8 µM
- IC50: > 39.8 µM

Compound: Cn1c2c(c3ccccc31)CCN(CCCN1CCN(c3ccccc3)CC1)C2=O
- EC50: > 55 µM
- IC50: 44.7 µM

Compound: COC12C(COC(N)=O)C3=C(C(=O)C(C)=C(N4CCN(C)CC4)C3=O)N1CC1NC12 (stereo not drawn)
- EC50: > 200 µM
- IC50: 110 µM

Compound: CCc1cc(-c2nsc(=O)o2)c(S(=O)(=O)CC)s1
- EC50: > 200 µM
- IC50: 93.3 µM

Compound: CC(C)(CO)C(O)C(=O)NCCS(=O)(=O)O (stereo not drawn)
- EC50: > 200 µM
- IC50: > 200 µM

Compound: CC(C)(C)/C(O)=C\c1nc2cc(C(F)(F)F)ccc2[nH]c1=O
- EC50: > 200 µM
- IC50: > 200 µM

Compound: O=C(O)c1cc(=O)c2cc3c(cc2o1)OCc1ccccc1-3
- EC50: > 93.3 µM
- IC50: > 93.3 µM

Compound: CC(=O)c1sc2[n+](c1C)C(=O)/C(=C\c1ccccc1Cl)S2
- EC50: 31.6 µM
- IC50: 110 µM

Compound: Cc1cn(C2CC(O)C(COC(=O)CCCCCCCCCCCN=[N+]=[N-])O2)c(=O)[nH]c1=O (stereo not drawn)
- EC50: 10 µM
- IC50: 21.4 µM

Compound: N#Cc1c(N)c(C(=O)Nc2ccc(Cl)cc2)n2c1CCC2
- EC50: > 200 µM
- IC50: > 200 µM

Compound: COc1ccc(C(=O)/C=C/c2ccc(OCC(=N)N)cc2)cc1OC
- outcome: inactive

Compound: O=C1C2C=CC1C1C3OC3C(=O)C21 (stereo not drawn)
- EC50: > 708 µM
- IC50: > 708 µM

Compound: COC(=O)C1CCC(=O)N1CN(C(C)=O)c1ccccc1 (stereo not drawn)
- EC50: > 200 µM
- IC50: > 200 µM

Compound: COc1ccc(/C=N\N2CC(=O)N3C4C=CC(CC4)N3C2=O)cc1 (stereo not drawn)
- EC50: > 200 µM
- IC50: > 200 µM

Compound: CN(C)N1C(=O)C(=O)N(c2cccc3ccccc23)C1=O
- EC50: > 200 µM
- IC50: > 200 µM

Compound: CCCCCCCCNC(=O)SCCCC
- outcome: inactive

Compound: C=CCNC(=S)/N=C/c1c(O)c2ccccc2oc1=O
- EC50: > 64.6 µM
- IC50: 43.7 µM

Compound: O=C(C/C(CCC(=O)N(Cc1ccccc1)Cc1ccccc1)=N/Nc1ccc([N+](=O)[O-])cc1[N+](=O)[O-])c1ccccc1
- outcome: inactive

Compound: COc1cc(/C=C(\C#N)C(=O)c2ccccc2)cc(OC)c1OC
- EC50: > 16.2 µM
- IC50: > 16.2 µM

Compound: CO/C=C/CCCO
- EC50: > 2140 µM
- IC50: > 2140 µM

Compound: COC(=O)C(C(=O)C(=O)Nc1ccc(C)cc1C)c1csc(-n2nc(-c3ccccc3)cc2-c2ccccc2)n1 (stereo not drawn)
- EC50: > 158 µM
- IC50: 81.3 µM

Compound: Cc1cc([N+](=O)[O-])c(C)c2c1[nH]c1ccc(/C(CCC3CCCC3)=N\N)cc12
- EC50: > 10 µM
- IC50: > 10 µM

Compound: CC1=NNC(=O)C1C1CC(c2c[nH]c3ccccc23)=Nn2c(-c3ccccc3)nnc21 (stereo not drawn)
- EC50: > 100 µM
- IC50: 32.4 µM

Compound: CCN1C(=O)C(=O)OC1=C(c1ccccc1)c1ccccc1
- outcome: inactive

Compound: O=C1CCCCC/C1=C\c1cccc(Cl)c1
- EC50: > 200 µM
- IC50: 28.8 µM

Compound: N/N=C(/Cc1ccccc1)NNC(N)=S
- EC50: > 427 µM
- IC50: 263 µM

Compound: Cc1ccc(-c2cc(=O)c3cc(C)c(C)c(C(=O)O)c3o2)cc1C
- outcome: inactive

Compound: CC(CC(N)C(=O)O)C(=O)O (stereo not drawn)
- EC50: > 200 µM
- IC50: > 200 µM

Compound: CCCNC(=O)N(CC)S(=O)(=O)c1ccc(Cl)cc1
- outcome: inactive

Compound: Cc1cn([C@H]2C(CO)[C@@H](CO)C2(C)C)c(=O)[nH]c1=O (stereo partly drawn)
- EC50: > 933 µM
- IC50: > 933 µM

Compound: COc1ccc2c(c1)-c1c(c3cc(OC)ccc3n1CCN(C)C)CC2
- outcome: inactive

Compound: C[C@]12CC[C@@H]3c4cc(OCC(F)(F)F)c(O)cc4CC[C@H]3[C@@H]1CC[C@@H]2O
- EC50: > 0.2 µM
- IC50: 0.0676 µM

Compound: N#Cc1c(O)cc(=O)n2c1[nH]c1ccccc12
- EC50: > 200 µM
- IC50: 174 µM

Compound: Cc1ccc2c(c1)sc1nnc(S(C)(=O)=O)n12
- EC50: > 200 µM
- IC50: 11.2 µM

Compound: Cc1cn(C2CCC(COP(=O)(OCC(=O)C(C)(C)C)OCC(=O)C(C)(C)C)O2)c(=O)[nH]c1=O (stereo not drawn)
- EC50: 30.9 µM
- IC50: > 200 µM

Compound: O=C1/C(=C/c2ccc3c(c2)OCO3)Sc2scc(-c3ccc(O)c(O)c3)[n+]21
- EC50: > 200 µM
- IC50: 1.1 µM

Compound: COCCOCCOCCOc1cccc2c1C(=O)c1cccc(OCCOCCOCCOC)c1C2=O
- outcome: inactive

Compound: O=C(Nc1ccc(Cl)c(Cl)c1)O/N=C\c1c(Cl)ccc([N+](=O)[O-])c1Cl
- outcome: inactive

Compound: OC1c2ccccc2C(O)C2OC12 (stereo not drawn)
- EC50: > 200 µM
- IC50: 115 µM

Compound: CC1CCN(C2=CC(=O)C(=O)c3cccnc32)CC1
- outcome: inactive

Compound: S=C1N/N=C/NN/C=N/N1
- EC50: > 562 µM
- IC50: 282 µM

Compound: Brc1ccccc1/C=C\C1(c2ccccc2)OCCO1
- EC50: > 200 µM
- IC50: 4.37 µM

Compound: CN(c1ccc(Cl)cc1)S(=O)(=O)c1ccccc1[N+](=O)[O-]
- EC50: > 200 µM
- IC50: 24.5 µM

Compound: COc1cc(CC(C)NC(C)=O)cc(OC)c1 (stereo not drawn)
- EC50: > 200 µM
- IC50: > 200 µM

Compound: CC1(C)O[C@@H]2C[C@H]3[C@@H]4C[C@H](F)C5=CC(=O)C=C[C@]5(C)[C@@]4(F)[C@@H](O)C[C@]3(C)[C@]2(C(=O)CO)O1
- EC50: > 2 µM
- IC50: 0.00741 µM

Compound: CC(C)(C)c1cc(COc2c3sc(=S)sc3c(OCc3cc(C(C)(C)C)cc(C(C)(C)C)c3)c3sc(=S)sc23)cc(C(C)(C)C)c1
- outcome: inactive

Compound: COC[C@@H](N=CN1CCc2cc(OC)c(OC)cc2C1)C(C)(C)C
- EC50: > 741 µM
- IC50: > 741 µM

Compound: Clc1ccc(Nc2nc(Cl)c3[nH]cnc3n2)cc1Cl
- EC50: > 200 µM
- IC50: 63.1 µM

Compound: CC1(C)C2CC(=O)C1(C)C(O)C2Br (stereo not drawn)
- outcome: inactive

Compound: O=C(O)C1COCN1C(=O)c1ccccc1SSc1ccccc1C(=O)N1COCC1C(=O)O (stereo not drawn)
- EC50: > 200 µM
- IC50: > 200 µM

Compound: Clc1ccc(C2ON2C2CCCCC2)cc1 (stereo not drawn)
- outcome: inactive

Compound: Cc1ccc2nc(C(=O)O)c(=O)[nH]c2c1
- outcome: inactive

Compound: C/C(O)=C/c1nc2sc(C)c(C)c2c(=O)s1
- EC50: > 200 µM
- IC50: 39.8 µM

Compound: Cc1nc2c(sc3nc4c(cc32)CCC4)c(=O)o1
- EC50: > 100 µM
- IC50: 53.7 µM

Compound: CNC(C#N)c1ccc(OC)cc1 (stereo not drawn)
- EC50: > 200 µM
- IC50: 105 µM

Compound: CCOC(=O)CNC(=O)c1[nH]cnc1/N=N/N(C)C
- outcome: inactive
- IC50: 933 µM

Compound: O=[N+]([O-])c1ccc(Cc2ccccc2)cc1
- EC50: > 63.1 µM
- IC50: > 63.1 µM

Compound: N#CC(C#N)=Cc1ccc(Cl)cc1
- EC50: > 72.4 µM
- IC50: 66.1 µM

Compound: O=C(O)c1c(CC(Cc2ccc3c(c2)CCCC3)C(=O)O)ccc2c1CCCC2 (stereo not drawn)
- EC50: > 200 µM
- IC50: 141 µM

Compound: O=C1Oc2cc3c(c4cccc1c24)OCN(c1ccc(Cl)cc1)C3
- EC50: > 8.13 µM
- IC50: > 8.13 µM

Compound: COc1ccc(CN2CCC/C=C/CC(Cl)(Cl)C2=O)cc1
- EC50: > 110 µM
- IC50: 57.5 µM

Compound: C[N+]12CCC(c3ccccc3)(CC1)C(O)C2 (stereo not drawn)
- EC50: > 832 µM
- IC50: 741 µM

Compound: O=C1c2cn[nH]c2C(c2ccccc2)N1c1ccccc1 (stereo not drawn)
- outcome: inactive

Compound: COC(=O)N/N=C/c1oc(-c2cccc([N+](=O)[O-])c2)c(-c2cccc([N+](=O)[O-])c2)c1[N+](=O)[O-]
- EC50: > 79.4 µM
- IC50: > 79.4 µM

Compound: O=C(NNC(=O)c1cc(/C=C/c2cccc([N+](=O)[O-])c2)[nH]c(=S)n1)Nc1ccc(Cl)cc1
- EC50: > 11 µM
- IC50: > 11 µM

Compound: Cc1nc2c(=O)[nH]c3ccccc3c2o1
- EC50: > 200 µM
- IC50: > 200 µM

Compound: COC(=O)[C@@]12OC[C@]34[C@H]([C@@H](O)[C@@H]1O)[C@@]1(C)CC(=O)C(O)=C(C)[C@@H]1C[C@H]3OC(=O)[C@H](OC(=O)/C=C(\C)C(C)C)[C@@H]24
- EC50: > 123 µM
- IC50: 0.0389 µM

Compound: COc1ccc(C2SC(N)=Nc3c2c(C)nn3C(=O)c2ccc(Cl)cc2)cc1OC (stereo not drawn)
- EC50: > 200 µM
- IC50: > 200 µM

Compound: COc1c(Cl)cc(C(=CCCCC(=O)N(C)OC)c2cc(Cl)c(OC)c(C(=O)N(C)OC)c2)cc1C(=O)N(C)OC
- EC50: > 200 µM
- IC50: 30.9 µM

Compound: COc1cccc(CCn2c(N)c(C(=O)O)c3ccc([N+](=O)[O-])cc3c2=O)c1
- EC50: > 200 µM
- IC50: 24 µM

Compound: Oc1c(-c2ccccc2)nc2cnccn12
- EC50: > 447 µM
- IC50: > 447 µM

Compound: Cc1ccc2nc(-c3ccc(N=NNc4ccc(-c5nc6ccc(C)c(S(=O)(=O)O)c6s5)cc4)cc3)sc2c1S(=O)(=O)O
- EC50: 174 µM
- IC50: > 200 µM

Compound: COc1cc(/C=N\NS(=O)(=O)c2ccc(N)cc2)ccc1O
- EC50: > 295 µM
- IC50: 209 µM

Compound: CS(=O)(=O)NOCCCCONS(C)(=O)=O
- EC50: > 912 µM
- IC50: > 912 µM
